Where two headings read alike, the source gives them in different places.
Tests used:
[1] = system: Phakopsora pachyrhizi; assay: Asian soybean rust, whole-plant fungicidal activity (PHAKPA); format: in vivo; details: read-out: % Disease Control Rating PHAKPA
Procedure, shortened: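 Ten-day-old 'Williams 82' soybean seedlings sprayed to run-off with compound in acetone/water (1:9, 0.011% Tween-20), air-dried, then inoculated; 24 h dark dew room at 100% RH, then growth room. Disease severity scored 0–100% on sprayed leaves; percent control relative to untreated plants.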

[2] = system: Puccinia triticina; assay: Wheat brown rust, whole-plant fungicidal activity (PUCCRT); format: in vivo, Puccinia triticina on wheat plants (variety 'Yuma'); details: 24 h, 1DP (1 day protectant), read-out: % Disease Control Rating PUCCRT
Procedure, shortened: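 Wheat 'Yuma' seedlings at first-leaf stage sprayed to run-off with compound from acetone stock diluted in nine volumes water containing 110 ppm Triton X-100, then inoculated with Puccinia triticina spores. Held overnight in dark dew room at 100% RH, then greenhouse for disease development.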

[3] = system: Zymoseptoria tritici; assay: Septoria leaf blotch of wheat, whole-plant fungicidal activity (SEPTTR); format: in vivo, Zymoseptoria tritici on wheat plants (variety 'Yuma'); details: read-out: % Disease Control Rating SEPTTR
Procedure, shortened: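 Compounds in acetone, diluted with nine volumes of water containing 110 ppm Triton X-100, were sprayed to run-off on 'Yuma' wheat seedlings at full first-leaf emergence. Spore inoculation was 3 days before (3DC, curative) or 1 day after (1DP, protectant) treatment, then 3 days at 100% RH and greenhouse. First-leaf disease severity (0–100%) was scored relative to untreated plants as percent control.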

[4] = system: Rhynchosporium commune; assay: Leaf blotch of barley, whole-plant fungicidal activity (RHYNSE); format: in vivo; details: 24 h, 1DP (1 day protectant), read-out: % Disease Control Rating RHYNSE
Procedure, shortened: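 Barley cv. 'Harrington' at full first-leaf emergence (7-10 seedlings per pot) was sprayed to run-off with compound in acetone plus nine volumes of water containing 110 ppm Triton X-100, air-dried, then inoculated with spore suspension. Plants spent two days in a dark dew room at 100% RH, then moved to greenhouse for disease development.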

Compound | pest or weed control at 200 ppm ([1]; 24 h, 1DP (1 day protectant)) [%] | pest or weed control at 200 ppm ([1]; 72 h, 3DC (3 day curative)) [%] | melting point [°C] | pest or weed control at 200 ppm [2] [%] | pest or weed control at 200 ppm ([3]; 24 h, 1DP (1 day protectant)) [%] | pest or weed control at 200 ppm ([3]; 72 h, 3DC (3 day curative)) [%] | pest or weed control at 200 ppm [4] [%]
CCN(C)/C=N/c1cc(C)c(C(=O)Cc2ccccc2C)cc1C [Compound 1] | > 85 | > 85 | 101 to 105 | > 85 | < 20 | 20 to 50 | > 85
CCN(C)/C=N/c1ccc(C(=O)CCC(F)(F)F)c(C)c1C [Compound 13] | 50 to 85 | > 85 | 52 to 56 | < 20 | < 20 | < 20 | < 20
CCN(C)/C=N/c1cc(C)c(C(=O)Cc2ccc(OC(F)(F)F)cc2)cc1C [Compound 8] | > 85 | > 85 | 70 to 74 | > 85 | 50 to 85 | 20 to 50 | > 85
CCN(C)/C=N/c1ccc(C(=O)CC2CCCCC2)c(C)c1C [Compound 15] | > 85 | > 85 | 68 to 72 | < 20 | < 20 | < 20 | 50 to 85
CCN(C)/C=N/c1cc(C)c(C(=O)Cc2ccccc2)cc1C [Compound 2] | > 85 | > 85 | 43 to 46 | > 85 | 20 to 50 | < 20 | > 85
CCN(C)/C=N/c1cc(C)c(C(=O)CC2CCCCC2)cc1C [Compound 3] | > 85 | > 85 | 69 to 71 | > 85 | > 85 | 20 to 50 | > 85
Cc1cc(C(=O)CC2CCCCC2)c(C)cc1/N=C(\S)N(C)c1ccccc1 [Compound 51] | < 20 | < 20 |  | < 20 | 20 to 50 | < 20 | < 20
CCN(C)/C=N/c1ccc(C(=O)Cc2ccc(C)cc2)c(C)c1C [Compound 12] | 50 to 85 | 50 to 85 |  | < 20 | < 20 | < 20 | < 20
CCN(C)/C=N/c1cc(F)c(C(=O)CC2CCCC2)cc1C [Compound 30] | > 85 | > 85 |  | 50 to 85 | < 20 | < 20 | < 20
C=CCN(C)/C(S)=N/c1cc(C)c(C(=O)CC2CCCCC2)cc1C [Compound 45] | 20 to 50 | 50 to 85 |  | > 85 | < 20 | < 20 | < 20
CC/C(=N\c1cc(C)c(C(=O)Cc2c(F)cc(F)cc2F)cc1C)N(C)CC [Compound 87] | 50 to 85 | 20 to 50 |  | > 85 | < 20 | < 20 | < 20

From patent US20240000075A1, “FUNGICIDAL ARYL AMIDINES” (CORTEVA AGRISCIENCE LLC, priority 2020, published 2024)
